Laboratory results from patent US20240390417A1, “MNO NANOMATERIAL BASED INHIBITORS OF INFLAMMATION AND SARS-COV-2 VIRAL REPLICATION” (Duke University, priority 2015, published 2024).

Legend:
[1] = tested on: calf thymus DNA; assay: PicoGreen DNA-binding assay; settings: TE buffer, unbound PicoGreen-labeled DNA
Protocol: The fluorescence intensity of the unbound Picogreen®-DNA complex at 520 nm was measured with a multiwell plate reader via excitation at 490 nm.
Inflammatory circulating cfDNA released by PTT-damaged host cells might cause a severe inflammatory response, which may be mitigated by the scavenging of cfDNA. Therefore, to interrogate the cfDNA scavenging ability of the various nanoparticles, the inventors investigated the calf thymus DNA binding affinity of the nanoparticles in Tris-EDTA (TE) buffer with and without 10% FBS by measuring unbound PicoGreen®-labeled DNA (FIGS. 5C and 5D).

[2] = tested on: 4T1 tumor-bearing mice; assay: PTT-induced inflammation, 4T1 metastasis tumor model; settings: intravenous three times per week
Protocol: The fluorescent signal intensity was recorded on the IVIS® instrument at different time intervals.
The ability of the MnO and MnO@Cucumin nanoparticles to mitigate the PTT-induced inflammatory response was examined on 4T1 tumor-bearing mice. […] The 4T1 tumor-bearing mice received photothermal therapy first, and then were further treated with different formulations by intravenous injection three times per week.

## O=C(OC[C@H]1O[C@@H](OC(=O)c2cc(O)c(O)c(OC(=O)c3cc(O)c(O)c(O)c3)c2)[C@H](OC(=O)c2cc(O)c(O)c(OC(=O)c3cc(O)c(O)c(O)c3)c2)[C@@H](OC(=O)c2cc(O)c(O)c(OC(=O)c3cc(O)c(O)c(O)c3)c2)[C@@H]1OC(=O)c1cc(O)c(O)c(OC(=O)c2cc(O)c(O)c(O)c2)c1)c1cc(O)c(O)c(OC(=O)c2cc(O)c(O)c(O)c2)c1 [tannic acid]
[1]
  DNA binding affinity: can bind to DNA

## COc1cc(/C=C/C(=O)CC(=O)/C=C/c2ccc(O)c(OC)c2)ccc1O [curcumin]
[2]; after laser (PTT)
  body weight: increased body weight
  tumor recurrence and metastasis: inhibited tumor recurrence and metastasis
[2]; without laser
  effect on body weight of the mice: did not show obvious effects
  effect on size of the tumors: did not show obvious effects
[1]
  DNA binding affinity: negligible DNA binding ability
